In patent US20060052362A1, “Skeletal muscle protecting agent” (priority 2003, published 2006):
Like-named read-outs stand apart in the source and are kept apart here.

What was measured:
[1] = tested on: Human normal skeletal muscle cells; test: Effect of Test compound 3 on cytotoxicity of HMG-CoA reductase inhibitor (1), drugs added at the same time; format: cell-based; conditions: 3 days
Text: Effect of Test Compound 3 on Cytotoxicity of HMG-CoA Reductase Inhibitor (1)

[2] = tested on: Human normal skeletal muscle cells; test: Effect of Test compound 3 on cytotoxicity of HMG-CoA reductase inhibitor (2), pretreatment 1 day; format: cell-based
Protocol: Effect of Test Compound 3 on Cytotoxicity of HMG-CoA Reductase Inhibitor (2)
The drug in Treatment 1 was added and after 1 day, the medium was completely removed.

[3] = tested on: Human normal skeletal muscle cells; conditions: for The number of the live cells (% of Group 1): 3 days
[4] = tested on: geranylgeraniol (GGOH) content in soleus muscle; test: Increasing effect on geranylgeraniol (GGOH) content in soleus muscle; format: in vivo; conditions: male SD rat, Mean ± SE (N = 4)
Protocol: Increasing Effect on Geranylgeraniol (GGOH) Content in Soleus Muscle
To 6 week-old male SD rat (4 per group) was orally administered forcedly by means of a stomach sonde a vehicle or Test compounds 1 or 2 at a dose of 10 mL/kg once a day for 14 days so as to be in an amount of 40 or 200 mg/kg. In the next morning of the 14th administration, the rat was killed under ether anesthesia. Immediately, the soleus muscle was collected and frozen on a dry ice, and then kept at −80° C. Later, to the muscle homogenate was added phosphatase for dephosphorylation, and then the concentration of geranylgeraniol (sum total of geranylgeranyl pyrophosphate and geranylgeraniol) in the muscle was determined with LC/MS/MS (Table 1).

squalene synthase = target: T1, squalene synthase (Homo sapiens, UniProt P37268); conditions: described in Test 1 of JP-A No. 9-136880; cited from earlier work
T1 sequence (P37268 1-417): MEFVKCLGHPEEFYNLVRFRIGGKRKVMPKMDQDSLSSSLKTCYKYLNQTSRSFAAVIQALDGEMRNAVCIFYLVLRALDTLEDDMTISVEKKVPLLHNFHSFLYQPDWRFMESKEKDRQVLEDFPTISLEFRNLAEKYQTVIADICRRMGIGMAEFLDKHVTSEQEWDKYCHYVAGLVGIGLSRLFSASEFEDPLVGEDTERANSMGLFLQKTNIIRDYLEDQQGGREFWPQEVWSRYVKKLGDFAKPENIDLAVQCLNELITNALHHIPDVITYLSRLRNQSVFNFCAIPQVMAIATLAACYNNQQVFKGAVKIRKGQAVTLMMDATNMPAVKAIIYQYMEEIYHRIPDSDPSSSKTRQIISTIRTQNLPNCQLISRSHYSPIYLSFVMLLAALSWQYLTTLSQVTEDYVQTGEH

[5] = single drug 10 μM, other treatment vehicle, Mean ± SE (N = 3)
[6] = 40 mg/kg oral once a day for 14 days
[7] = 200 mg/kg oral once a day for 14 days

SMILES: CC(C)c1c(C(=O)Nc2ccccc2)c(-c2ccccc2)c(-c2ccc(F)cc2)n1CC[C@@H](O)C[C@@H](O)CC(=O)O [Atorvastatin, atorvastatin, reference compound]
- The number of the live cells (% of Group 1) ([1]; Atorvastatin 100 μM alone (Treatment 1 vehicle)): 34 ± 0.6 % of Group 1
- The number of the live cells (% of Group 1) ([2]; vehicle 1 day, then Atorvastatin 10 μM 3 days): 57 ± 1.1 % of Group 1
- The number of the live cells (% of Group 1) ([2]; vehicle 1 day, then Atorvastatin 100 μM 3 days): 35 ± 1.9 % of Group 1
- The number of the live cells (% of Group 1) [3, 5]: 52.0 ± 0.9 % of Group 1

SMILES: CC(C)=CCC/C(C)=C/CC/C(C)=C/CC/C(C)=C/COP(=O)(O)OP(=O)(O)O [GGPP, geranylgeranyl pyrophosphate]
- The number of the live cells (% of Group 1) ([3]; GGPP 10 μM added together with Atorvastatin 10 μM): 67.8 ± 1.3$ % of Group 1
- The number of the live cells (% of Group 1) ([3]; GGPP 10 μM added together with Simvastatin 10 μM): 72.3 ± 1.6 % of Group 1
- The number of the live cells (% of Group 1) [3, 5]: 93.5 ± 0.8 % of Group 1
- activity reducing cytotoxicity in skeletal muscle cells (in words) ([3]; summary of Table 2): had an activity reducing cytotoxicity in skeletal muscle cells

SMILES: CCC(C)(C)C(=O)O[C@H]1C[C@@H](C)C=C2C=C[C@H](C)[C@H](CC[C@@H]3C[C@@H](O)CC(=O)O3)[C@H]21 [Simvastatin, simvastatin]
- The number of the live cells (% of Group 1) [3, 5]: 46.2 ± 1.5 % of Group 1

SMILES: COc1cccc([C@H]2O[C@H](CC(=O)N3CCC(CC(=O)O)CC3)C(=O)N(CC(C)(C)COC(C)=O)c3ccc(Cl)cc32)c1OC [Test compound 1, N-[[(3R,5S)-1-(3-acetoxy-2,2-dimethylpropyl)-7-chloro-5-(2,3-dimethoxyphenyl)-2-oxo-1,2,3,5-tetrahydro-4,1-benzoxazepin-3-yl]acetyl]piperidine-4-acetic acid]
- GGOH content in the soleus muscle [4, 6]: 0.224 ± 0.017 μg/g soleus muscle
- GGOH content in the soleus muscle [4, 7]: 0.255 ± 0.027 μg/g soleus muscle

SMILES: COc1cccc([C@H]2O[C@H](CC(=O)Nc3cccc(CCC(=O)O)c3)C(=O)N(CC(C)(C)CO)c3ccc(Cl)cc32)c1OC [Test compound 2, 3-[3-[[[(3R,5S)-7-chloro-5-(2,3-dimethoxyphenyl)-1-(3-hydroxy-2,2-dimethylpropyl)-2-oxo-1,2,3,5-tetrahydro-4,1-benzoxazepin-3-yl]acetyl]amino]phenyl]propionic acid]
- GGOH content in the soleus muscle [4, 6]: 0.225 ± 0.019 μg/g soleus muscle
- GGOH content in the soleus muscle [4, 7]: 0.255 ± 0.006 μg/g soleus muscle
- inhibitory activity against squalene synthase (squalene synthase): has inhibitory activity against squalene synthase

SMILES: COc1cccc([C@H]2O[C@H](CC(=O)N3CCC(CC(=O)O)CC3)C(=O)N(CC(C)(C)CO)c3ccc(Cl)cc32)c1OC [Test compound 3, N-[[(3R,5S)-7-chloro-5-(2,3-dimethoxyphenyl)-1-(3-hydroxy-2,2-dimethylpropyl)-2-oxo-1,2,3,5-tetrahydro-4,1-benzoxazepin-3-yl]acetyl]piperidine-4-acetic acid]
- The number of the live cells (% of Group 1) ([1]; Test compound 3 10 μM added at the same time as Atorvastatin 100 μM): 42 ± 0.5 % of Group 1
- The number of the live cells (% of Group 1) ([1]; Test compound 3 10 μM alone (Treatment 2 vehicle), Mean ± SE (N = 3)): 96 ± 1.2 % of Group 1
- The number of the live cells (% of Group 1) ([2]; Test compound 3 10 μM for 1 day, medium removed, then Atorvastatin 10 μM 3 days): 76 ± 1.8 % of Group 1
- The number of the live cells (% of Group 1) ([2]; Test compound 3 10 μM for 1 day, medium removed, then Atorvastatin 100 μM 3 days): 45 ± 0.2 % of Group 1
- The number of the live cells (% of Group 1) ([2]; Test compound 3 10 μM for 1 day, medium removed, then vehicle 3 days, Mean ± SE (N = 3)): 98 ± 2.3 % of Group 1
- inhibitory activity against squalene synthase (squalene synthase): has inhibitory activity against squalene synthase
